Test results published in patent US12570617B2 (Kyungpook National University Industry-Academic Cooperation …, priority 2020, dated 2026).

Tests used:
[1] = tested on: cancer cachexia mouse model; assay: Cancer cachexia mouse model (CT26): grip test, Rota-rod test, cancer size, body weight, feed intake, fat and muscle weight; format: in vivo; conditions: cancer cachexia mice; for body weight / cancer size / muscle mass / subcutaneous fat weight / total fat weight / visceral fat weight / daily feed intake: oral 10 mg/kg daily; for muscle mass / subcutaneous fat weight / total fat weight / visceral fat weight: 20th day
Method: Cultured 1×10^6 cells were subcutaneously injected into the right side of the abdomen of 10-week-old mice. The size of the cancer grown in the right abdomen, body weight, and feed intake were measured once every time after cell injection, and 10 mg/kg of a triazole compound was orally administered daily from the 9th day. On the 18th day of cancer cell injection, each of the grip test and Rota-rod test for evaluating the muscle function was performed for 1 day. On the 20th day, subcutaneous fat, visceral fat and muscle (femur, calf) of the mouse were separated and weighed.
For the evaluation of muscle function, the grip test was performed by holding the mouse by having the mouse hold the metal grid attached to the grip strength meter, holding the tail of the mouse, and pulling it from behind horizontally. The force applied to the metal grid immediately before losing the grip was recorded in the measuring instrument as the maximum tension in g, and the entire process was performed 9 times per subject to record the average value. In the Rota-rod test (Ugo Basile, Comerio, VA, Italy), Rota-rod exercise was performed at least three times at a rotational speed of 4 rpm by using a machine equipped with a rod with the diameter of 3 cm appropriately processed to provide grip to measure the endurance time of the tested animals in seconds and record the average value. Each Rota-rod behavior test was not to exceed 5 minutes per time.

ghrelin receptor [2] = target: T1, ghrelin receptor (Homo sapiens, UniProt Q92847); assay: Intracellular calcium influx in HEK293 cells overexpressing a ghrelin receptor; format: cell-based; set-up: host or cells: HEK293 (ATCC); conditions: read-out: EC50, concentration capable of inducing 50% intracellular calcium influx
Method: Human embryonic kidney 293 (HEK293) cells were purchased from ATCC and cultured in a DMEM medium comprising 10% FBS at 37° C. and in 5% CO2.
After treating the cells with 100 ul of a wash buffer, fluorescently labeled intracellular calcium was imaged at an excitation wavelength of 485 nm and an emission wavelength of 520 nm for 1 minute at a shutter interval of 10 seconds under a laser scanning confocal microscope equipped with a temperature and humidity control equipment. […] Intracellular calcium fluorescence intensity by treatment with compounds was quantified by calculating same based on the fluorescence intensity when not treated with compounds.
Target sequence in this assay (Q92847 whole entry): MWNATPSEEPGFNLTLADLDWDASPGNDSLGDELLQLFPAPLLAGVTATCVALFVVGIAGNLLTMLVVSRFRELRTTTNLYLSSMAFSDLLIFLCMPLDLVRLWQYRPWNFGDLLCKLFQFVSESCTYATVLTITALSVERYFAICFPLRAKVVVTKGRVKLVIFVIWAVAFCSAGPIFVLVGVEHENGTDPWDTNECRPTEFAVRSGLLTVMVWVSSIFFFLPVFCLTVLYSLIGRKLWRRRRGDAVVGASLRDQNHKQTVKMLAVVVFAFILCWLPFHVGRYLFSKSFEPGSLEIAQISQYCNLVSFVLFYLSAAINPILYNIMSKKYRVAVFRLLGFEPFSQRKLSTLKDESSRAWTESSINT

[3] = tested on: postoperative ileus (POI) mouse model; assay: Delayed gastric emptying in postoperative ileus (POI) mouse model; format: in vivo; conditions: POI mice, oral 10, 20, 30 mg/kg 20 hours after POI surgery
Method: (§1) Mice aged 6-8 weeks were fasted for one day and then anesthetized with a mixture of ketamine and xylazine. The abdomen and peritoneum were then incised, and the small intestine was exposed on a sterile gauze pad. Manipulation was performed from the duodenum to the cecum for 5 minutes by using a sterile cotton swab. After surgery, the abdomen was sutured and the mice were allowed to recover for 4 hours in a cage maintained at 32 degrees.
Triazole compounds (10 mg/kg, 20 mg/kg and 30 mg/kg) were orally administered 20 hours after POI surgery. […] After 30 minutes, the stomach of the mouse was removed and put into a 0.1N NaOH 2 ml solution to homogenize same. 3 ml of 0.1N NaOH solution was added and centrifuged at 3000 rpm at 4 degrees for 10 minutes. After adding […] of 20% trichloroacetic acid to the supernatant, the mixture was centrifuged at 3000 rpm at 4 degrees for 10 minutes. […] The percentage of the gastric emptying delay was calculated by (1−(absorbance of test sample)/(baseline control absorbance)×100.

[4] = tested on: postoperative ileus (POI) mouse model; assay: Colon transit time of feces in postoperative ileus (POI) mouse model; format: in vivo; conditions: POI mice; for colon transit time of feces: oral 30 mg/kg 4 hours after POI surgery; for colon transit time of feces / feed intake: vs PBS; for body weight / feed intake: 24 hours
Method: as §1
To evaluate the colon transit time of feces, 200 ul of trypan blue dye was injected into the proximal colon before suturing after POI surgery. A triazole compound (30 mg/kg) was orally administered 4 hours after POI surgery. The mouse was transferred to a metabolic cage, and the weighed feed was administered thereinto, and the time at which the first feces stained with trypan blue appeared was measured for 24 hours. At the 24th hour, the number and weight of feces were measured, and the weight of the consumed feed and the mouse's body weight were measured.

ghrelin receptor [5] = target: T1, ghrelin receptor; assay: G protein coupled receptor agonist analysis (Eurofins Discovery), ghrelin receptor; format: cell-based; set-up: Eurofins Discovery; dose or concentration left out as unconfirmed; conditions: compound alone (agonist effect)
Method: (§2) The efficacy of triazole compounds […] as agonists and antagonists for a total of 170 types of G protein-coupled receptors was performed by Eurofins Discovery.
(§3) The family of G protein-coupled receptors comprises many types of receptors comprising a ghrelin receptor. It was checked whether or not the triazole compounds have efficacy as agonists or antagonists of different types of G protein-coupled receptors.
Target sequence in this assay (Q92847 whole entry, species assumed): as the sequence (Q92847 whole entry) above

[6] = tested on: 170 G protein-coupled receptors; assay: G protein coupled receptor agonist and antagonist analysis, panel of 170 receptors (Eurofins Discovery); format: cell-based; set-up: dose or concentration left out as unconfirmed; conditions: alone (agonist effect) or together with ligands for each receptor (antagonist effect)
Method: as §2, §3

Question: What does the source list for CCCCCCCCCCn1cc(C(N)(CO)CO)nn1 [KARI101, 2-amino-2-(1-decyl-1H-1,2,3-triazol-4-yl) propane-1,3-diol]?
Answer: body weight [1]: did not affect; cancer size [1]: did not affect; muscle mass ([1]; vs Vehicle): increased; subcutaneous fat weight ([1]; vs Vehicle): increased; total fat weight ([1]; vs Vehicle): increased; visceral fat weight ([1]; vs Vehicle): increased; daily feed intake ([1]; vs Vehicle): increased; muscle strength function (Grip test and Rota-rod test) ([1]; oral 10 mg/kg once daily from 9th day, tested 18th day, vs Vehicle): significantly improved; EC50 (ghrelin receptor [2]): 189 nM; delayed gastric emptying [3]: significant improvement; colon transit time of feces [4]: significantly reduced; body weight ([4]; oral 30 mg/kg): no change; feed intake ([4]; oral 30 mg/kg): increased

Question: How did the body weight [1] turn out when CCCCCCCCCn1cc(C(N)(CO)CO)nn1 [KARI201, 2-amino-2-(1-nonyl-1H-1,2,3-triazol-4-yl)propane-1,3-diol] was run?
Answer: The body weight was “did not affect”.

Question: And the cancer size [1]?
Answer: The cancer size was “did not affect”.

Question: What about the muscle mass ([1]; vs Vehicle) of the same compound?
Answer: Its muscle mass is “increased”.

Question: And the subcutaneous fat weight ([1]; vs Vehicle)?
Answer: Its subcutaneous fat weight is “increased”.

Question: What about the total fat weight ([1]; vs Vehicle) of the same compound?
Answer: The total fat weight was “increased”.

Question: And the visceral fat weight ([1]; vs Vehicle)?
Answer: The visceral fat weight was “increased”.

Question: What about the daily feed intake ([1]; vs Vehicle) of the same compound?
Answer: Its daily feed intake is “increased”.

Question: And the “efficacy as a ghrelin receptor agonist” value (ghrelin receptor [5])?
Answer: Its value is 83.7%.

Question: And the delayed gastric emptying [3]?
Answer: The delayed gastric emptying was “significant improvement”.

Question: And the “colon transit time of feces” value [4]?
Answer: Its value is “significantly reduced”.

Question: What about the body weight ([4]; oral 30 mg/kg) of the same compound?
Answer: The body weight was “no change”.

Question: And the feed intake ([4]; oral 30 mg/kg)?
Answer: The feed intake was “increased”.

Question: And the “number and weight of feces” value ([4]; oral 30 mg/kg, at the 24th hour)?
Answer: The value was “increased”.

Question: And the “specificity among 170 G protein-coupled receptors (agonist or antagonist efficacy)” value [6]?
Answer: The value was “ghrelin receptor-specific agonist”.

Question: Which EC50 (ghrelin receptor [2]) does the source give for CCCCCCCCCCCCn1cc(C(N)(CO)CO)nn1 [KARI001, 2-amino-2-(1-dodecyl-1H-1,2,3-triazol-4-yl)propane-1,3-diol] here?
Answer: The EC50 was 128 nM.
